Experimental findings from ChEMBL document CHEMBL1139959, “Optimization of triaryl bis-sulfones as cannabinoid-2 receptor ligands” (Bioorg Med Chem Lett, 2007) are described below.

The species entered for one data set is Homo sapiens. Put plainly: Selectivity for CB1 receptor over CB2 receptor.
Data set [1] addresses Cannabinoid receptor 2 (Homo sapiens) (UniProt P34972). Description: Binding affinity to CB2 receptor.
Another data set can be described thus: in vivo. To be noted: rat, plasma, po, 10 mg/kg.

A value given as a limit tells only on which side of the number the result lay.

Cannabinoid receptor 2 (Homo sapiens), sequence (P34972 whole entry, looked up): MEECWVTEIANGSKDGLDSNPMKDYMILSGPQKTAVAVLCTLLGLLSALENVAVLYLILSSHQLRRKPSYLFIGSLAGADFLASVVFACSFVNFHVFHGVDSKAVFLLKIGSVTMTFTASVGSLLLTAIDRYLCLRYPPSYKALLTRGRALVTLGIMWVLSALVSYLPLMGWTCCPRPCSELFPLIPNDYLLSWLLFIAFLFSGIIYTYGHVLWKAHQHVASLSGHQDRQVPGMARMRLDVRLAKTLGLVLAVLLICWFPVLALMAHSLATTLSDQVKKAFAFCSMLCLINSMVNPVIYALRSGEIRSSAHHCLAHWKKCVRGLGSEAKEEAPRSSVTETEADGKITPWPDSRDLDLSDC
Description for in vivo: AUC in rat at 10 mg/kg, po after 6 hrs

Regarding `C[C@H](NS(C)(=O)=O)c1ccc(S(=O)(=O)c2ccc(Cl)cc2S(=O)(=O)N(C)C)cc1`, in the data set filed under Homo sapiens, the Ratio Ki worked out at 58.

For the molecule `CCCS(=O)(=O)c1cc(Cl)ccc1S(=O)(=O)c1ccc([C@H](C)NS(C)(=O)=O)cc1`, the Ratio Ki in the data set filed under Homo sapiens came out at 57.

For `C[C@H](NCCC(F)(F)F)c1ccc(S(=O)(=O)c2ccc(Cl)cc2S(=O)(=O)c2ccccc2F)cc1`, the Ratio Ki in the data set filed under Homo sapiens worked out at 105.

For `C[C@H](NS(=O)(=O)C(F)(F)F)c1ccc(S(=O)(=O)c2ccc(N3CCNCC3)cc2S(=O)(=O)c2ccccc2F)cc1`, the Ratio Ki in the data set filed under Homo sapiens was determined as 31.

As to `C[C@H](NS(=O)(=O)C(F)(F)F)c1ccc(S(=O)(=O)c2ccc(NC3CC3)cc2S(=O)(=O)c2ccccc2F)cc1`, the Ratio Ki in the data set filed under Homo sapiens was 66. Besides, the Ki in data set [1] is 4.9 nM.

`C[C@H](NS(C)(=O)=O)c1ccc(S(=O)(=O)c2ccc(Cl)cc2S(=O)(=O)c2cccc[n+]2[O-])cc1`: the Ratio Ki in the data set listed under Homo sapiens amounted to 840.

For `CNS(=O)(=O)c1cc(Cl)ccc1S(=O)(=O)c1ccc([C@H](C)NS(C)(=O)=O)cc1`, in the data set filed under Homo sapiens, the Ratio Ki came to 64.

In the case of `C[C@H](NS(=O)(=O)C(F)(F)F)c1ccc(S(=O)(=O)c2ccc(Cl)cc2S(=O)(=O)c2ncccn2)cc1`, in the data set listed under Homo sapiens, the Ratio Ki came to 859. The molecule also came in with a Ki in data set [1] of 21 nM.

With `C[C@H](NS(=O)(=O)C(F)(F)F)c1ccc(S(=O)(=O)c2ccc(Cl)cc2S(=O)(=O)c2c(F)cccc2N(C)C)cc1`, the Ratio Ki in the data set filed under Homo sapiens worked out at 60. Moreover, in data set [1], the Ki was determined as 115 nM.

As for `C[C@H](NCC(F)(F)F)c1ccc(S(=O)(=O)c2ccc(Cl)cc2S(=O)(=O)c2ccccc2F)cc1`, the Ratio Ki in the data set listed under Homo sapiens is 325.

With `CC(=O)N[C@@H](C)c1ccc(S(=O)(=O)c2ccc(Cl)cc2S(=O)(=O)c2ccccc2F)cc1`, in the data set listed under Homo sapiens, the Ratio Ki is 250. In addition, in data set [1], the Ki came to 60.7 nM.

For `CCNC(=O)N[C@@H](C)c1ccc(S(=O)(=O)c2ccc(Cl)cc2S(=O)(=O)c2ccccc2F)cc1`, in data set [1], the Ki was > 10000 nM.

In the case of `C[C@H](NS(=O)(=O)C(F)(F)F)c1ccc(S(=O)(=O)c2ccc(O)cc2S(=O)(=O)c2ccccc2F)cc1`, the Ratio Ki in the data set filed under Homo sapiens stood at 1570.

With `C[C@H](N)c1ccc(S(=O)(=O)c2ccc(Cl)cc2S(=O)(=O)c2ccccc2F)cc1`, the Ratio Ki in the data set filed under Homo sapiens turned out to be 14.

With `C[C@H](NS(=O)(=O)C(F)(F)F)c1ccc(S(=O)(=O)c2ccc(Cl)cc2S(=O)(=O)c2c(F)cccc2N2CCOCC2)cc1`, the Ratio Ki in the data set listed under Homo sapiens came out at 18.

For the molecule `C[C@H](NS(=O)(=O)C(F)(F)F)c1ccc(S(=O)(=O)c2ccc(Cl)cc2S(=O)(=O)N2CCCCC2)cc1`, in the data set filed under Homo sapiens, the Ratio Ki amounted to 231. The molecule also returned a Ki in data set [1] of 58 nM.

On to `C[C@H](NS(=O)(=O)C(F)(F)F)c1ccc(S(=O)(=O)c2ccc(Cl)cc2S(=O)(=O)c2ccccn2)cc1`, for which the Ratio Ki in the data set filed under Homo sapiens stood at 1150. Besides, in data set [1], the Ki amounted to 3.6 nM.

Take `C[C@H](NS(=O)(=O)C(F)(F)F)c1ccc(S(=O)(=O)c2ccc(C(F)(F)F)cc2S(=O)(=O)c2ccccc2F)cc1`: the Ratio Ki in the data set filed under Homo sapiens is 2080.

`C[C@H](NS(C)(=O)=O)c1ccc(S(=O)(=O)c2ccc(Cl)cc2S(=O)(=O)NS(C)(=O)=O)cc1`: in the data set filed under Homo sapiens, the Ratio Ki turned out to be 36. In data set [1], this molecule registered a Ki of 2750 nM.

`C[C@H](NS(C)(=O)=O)c1ccc(S(=O)(=O)c2ccc(Cl)cc2S(=O)(=O)c2cccc3cccnc23)cc1`: the Ratio Ki in the data set filed under Homo sapiens was 31.

As to `Cc1ccc(S(=O)(=O)c2ccc([C@H](C)NS(=O)(=O)C(F)(F)F)cc2)c(S(=O)(=O)c2ccccc2F)c1`, the Ratio Ki in the data set filed under Homo sapiens was 2290. The same molecule returned a Ki in data set [1] of 1.1 nM.

Turning to `C[C@H](NS(=O)(=O)C(F)(F)F)c1ccc(S(=O)(=O)c2ccc(Cl)cc2S(=O)(=O)N2CCOCC2)cc1`, the Ratio Ki in the data set filed under Homo sapiens came out at 99. Moreover, the Ki in data set [1] was 192 nM.

Regarding `C[C@H](NS(=O)(=O)C(F)(F)F)c1ccc(S(=O)(=O)c2ccc(Cl)cc2S(=O)(=O)c2c(F)cccc2F)cc1`, the Ratio Ki in the data set listed under Homo sapiens was 642. In data set [1], this molecule gave a Ki of 5.8 nM.

In the case of `C[C@H](NC(=O)C(F)(F)F)c1ccc(S(=O)(=O)c2ccc(Cl)cc2S(=O)(=O)c2ccccc2F)cc1`, the Ratio Ki in the data set listed under Homo sapiens came to 784.

For `C[C@H](NS(C)(=O)=O)c1ccc(S(=O)(=O)c2ccc(Cl)cc2S(=O)(=O)c2ccccn2)cc1`, the Ratio Ki in the data set listed under Homo sapiens stood at 4400.

`C[C@H](NS(C)(=O)=O)c1ccc(S(=O)(=O)c2ccc(Cl)cc2S(=O)(=O)c2ccccc2F)cc1`: in the data set listed under Homo sapiens, the Ratio Ki came to 4390. This molecule also returned an AUC at 6 h in “in vivo” of 6.33 µM·h.

Take `C[C@H](NS(=O)(=O)C(F)(F)F)c1ccc(S(=O)(=O)c2ccc(N)cc2S(=O)(=O)c2ccccc2F)cc1`: the Ratio Ki in the data set listed under Homo sapiens stood at 170.

Turning to `CNc1cccc(F)c1S(=O)(=O)c1cc(Cl)ccc1S(=O)(=O)c1ccc([C@H](C)NS(=O)(=O)C(F)(F)F)cc1`, in the data set filed under Homo sapiens, the Ratio Ki stood at 212.

Regarding `C[C@H](NS(=O)(=O)C(F)(F)F)c1ccc(S(=O)(=O)c2ccc(C3CC3)cc2S(=O)(=O)c2ccccc2F)cc1`, the Ratio Ki in the data set listed under Homo sapiens came to 2240. Also, the affinity in data set [1], expressed as Ki, was 1.4 nM.

Turning to `C[C@H](NS(=O)(=O)C(F)(F)F)c1ccc(S(=O)(=O)c2ccc(OC(F)(F)F)cc2S(=O)(=O)c2ccccc2F)cc1`, in the data set listed under Homo sapiens, the Ratio Ki was 525.

As for `C[C@H](NS(=O)(=O)C(F)(F)F)c1ccc(S(=O)(=O)c2ccc(Cl)cc2S(=O)(=O)NC(C)(C)C)cc1`, the Ratio Ki in the data set filed under Homo sapiens came to 123. This molecule registered a Ki in data set [1] of 136 nM.

With `COCCOc1ccc(S(=O)(=O)c2ccc([C@H](C)NS(=O)(=O)C(F)(F)F)cc2)c(S(=O)(=O)c2ccccc2F)c1`, the Ratio Ki in the data set listed under Homo sapiens came to 1600. In addition, affinity in data set [1] was put at a Ki of 2.5 nM.

For `C[C@H](NS(=O)(=O)C(F)(F)F)c1ccc(S(=O)(=O)c2ccccc2S(=O)(=O)c2ccccc2F)cc1`, the Ratio Ki in the data set listed under Homo sapiens was found to be 426.

For `Cc1occc1S(=O)(=O)c1cc(Cl)ccc1S(=O)(=O)c1ccc([C@H](C)NS(C)(=O)=O)cc1`, the Ratio Ki in the data set listed under Homo sapiens turned out to be 538. The molecule further showed a Ki in data set [1] of 129 nM.

As for `CCOc1ccc(S(=O)(=O)c2ccc([C@H](C)NS(=O)(=O)C(F)(F)F)cc2)c(S(=O)(=O)c2ccccc2F)c1`, the Ratio Ki in the data set listed under Homo sapiens was 1960. This molecule also returned a Ki in data set [1] of 0.9 nM.

Turning to `C[C@H](NS(=O)(=O)C(F)(F)F)c1ccc(S(=O)(=O)c2ccc(Cl)cc2S(=O)(=O)c2c(F)cccc2NC2CC2)cc1`, the Ratio Ki in the data set listed under Homo sapiens was determined as 688. The same molecule had a Ki in data set [1] of 14.4 nM.

`C[C@H](NS(=O)(=O)C(F)(F)F)c1ccc(S(=O)(=O)c2ccc(Cl)cc2S(=O)(=O)c2c(N)cccc2F)cc1`: the Ratio Ki in the data set filed under Homo sapiens is 1190.

Regarding `C[C@H](NS(C)(=O)=O)c1ccc(S(=O)(=O)c2ccc(Cl)cc2S(=O)(=O)C2CCCCC2)cc1`, the Ratio Ki in the data set listed under Homo sapiens was found to be 345. In data set [1], this molecule returned a Ki of 8.9 nM.

As a reminder, the Ki is a measure of affinity in units of concentration, obtained from inhibition or displacement. Low values mean higher affinity, high ones lower affinity. What is called AUC is concentration integrated over time. A low value points to less exposure.
